# Assay results published in article PMC10817945, “Design of a novel analogue peptide with potent antibiofilm activities against Staphylococcus aureus based upon a sapecin B-derived peptide” (Scientific Reports, 2024).
# Like-named read-outs stand apart in the source and are kept apart here. Non-standard residues stand in square brackets, D forms with d. Residues, ends and D or L forms follow the SMILES beside them.
# Tests used:
# in vitro [1] = settings: human
# Experimental: To quantitatively investigate the cytotoxicity of mKLK and KLK peptides, the 2,3-bis-(2-methoxy-4-nitro-5-sulfophenyl)-2H-tetrazolium-5-carboxanilide (XTT) (cell proliferation kit II, Roche, Germany) assay was performed on human embryonic kidney (HEK)-293 cell line, as described previously[47], The HEK-293 cells were grown in DMEM supplemented with 4 µM glutamine, 10% fetal bovine serum (FBS), and 100 units/ml penicillin/streptomycin at 37 °C in a 5% CO2 and 95% air atmosphere. Following incubation for 24 h, the culture medium was discarded and fresh medium containing different concentrations of KLK and mKLK peptides (1.56, 3.12, 6.25, 12.5, and 25 µM) was added and incubated at 37 °C for 20 min. Then, the culture medium was discarded and 100 µl of XTT reagent mixture was added and incubated for 4 h. Finally, the absorbance was measured at 570 nm using an ELISA plate reader (Anthos 2020, England). The percentage of cell inhibition was calculated using the following formula: % Cell inhibition = Test Abs/Control Abs × 100.
# [2] = system: clinical Salmonella isolates; set-up: method as in PMID 34361810; settings: cited from earlier work
# Human red blood cells = assay: in vitro
# Experimental: (§1) The assay was performed using fresh human blood samples containing citrate phosphate dextrose anticoagulant collected from a blood bank (Iranian Blood Transfusion Organization). Human red blood cells (RBC) were centrifuged at 1700×g for 5 min; then the supernatant was removed and the erythrocyte pellet was diluted 1:100 in PBS to obtain a 1% erythrocyte suspension. […] Then, 50 μl of the 1% erythrocyte suspension and 50 μl of the peptides were mixed and added to wells of a 96-well polypropylene conical bottom microplate and incubated at 37 °C for 1 h. Following centrifugation of the samples at 1700×g for 5 min, 50 μl of the supernatant was transferred to wells of a 96-well flat-bottom plate for the absorbance measurement at 405 nm in a microplate reader. Identical volumes of Triton X-100 (1%) and PBS were used as positive and negative controls, respectively. The selectivity indexes (SI) were also determined as a toxicity indicator.
# in vitro [3] = settings: human; remark: listed apart in the source
# Experimental: as §1
# S. aureus [4] = system: S. aureus; set-up: method as in ref 17 (Manabe et al.); settings: ref 17 (Manabe et al.); cited from earlier work
# [5] = system: S. aureus ATCC25923 and MRSA-1 strains; assay: Catheter-associated biofilm infection mouse model; format: in vivo, Staphylococcus aureus; settings: Balb/c mice, 5 days; for reduction of biofilm formation on catheters (crystal-violet assay): ATCC 25923; for reduction of biofilm on catheters (crystal-violet assay): MRSA
# Experimental: All animal experiments were performed in accordance with the protocols approved by the Animal Ethics Committee of Ahvaz Jundishapur University of Medical Sciences (Application No. IR.AJUMS.ABHC.REC.1400.014). Female Balb/c mice (Laboratory Animal Reproduction and Maintenance Center Ahvaz Jundishapur University Ahvaz, Iran) were housed one mouse per cage, under sanitary conditions at 22–25 °C and at 12 h light/dark cycles, with access to sanitized pellet food and water. Prior to each experiment, mice were acclimated to room conditions for 1 week. To increase the experimental accuracy, the cages were disinfected with a povidone-iodine solution of 10%, and the bedding materials were autoclaved, and replaced every day.
# In this study, eight groups (five mice per group) of 12-week-old female Balb/c mice were obtained from the Pasture Institute of Iran (Tehran, Iran). Three groups were used to investigate the effect of three concentrations of mKLK against ATCC25923 strain, three groups for three concentrations of mKLK against MRSA, and two groups for control). Mice were anesthetized by injection of ketamine 10% and xylazine 2% (in a ratio of 3 to 1). To create a subcutaneous pocket to place three 1-cm-long polyurethane catheters, a small incision was made. Three catheters were subcutaneously implanted on the lower back of mice. Following implantation of the catheters, injection of bacterial suspension and then mKLK peptide was performed into the subcutaneous pocket. […] In addition, PBS was injected alone into animals as a control group without contamination to evaluate the sterility of the surgical procedure. The incision was closed with Vetbond. Tissue adhesive (Kimiatajhiz teb, Iran) and cleansed with 10% PI solution. After 5 days, all mice were euthanized with CO2, and the catheters were removed. Subsequently, catheter-associated biofilms were evaluated using the CFU counting method, crystal violet assay, and SEM.
# The biofilm mass attached to the catheter surface was measured using a colorimetric assay (crystal violet). After removing the catheters from the mouse skin and double washing with PBS, each catheter was placed in wells of a 24-well microtiter plate, and absolute methanol was added to fix the biofilm to the catheter surface. Then, the methanol was discarded and the catheters were dried at room temperature. After staining with crystal violet 0.1% for 5 min at room temperature, the dye was discarded and the catheters were washed with PBS. Then, 33% acetic acid was added to each well to release the absorbed dye. […] To enumerate biofilm cells, catheters were removed, transferred to sterile tubes, vortexed, and sonicated. Bacterial numbers were determined by serial diluting and plating on TSA[56].
# [6] = 50% human serum, 37 °C, 2 h, reverse-phase HPLC
# Experimental: To assess the serum stability of mKLK peptide to proteolytic degradation, the D-form mKLK peptide (0.5 mg) was dissolved in 4 ml of 50% (v/v) of serum from male healthy donors in PBS and incubated at 37 °C for 0, 60, and 120 min. After each incubation time, the samples were analyzed by reverse-phase HPLC on a Jupiter proteo C18 column (250 × 4.6 mm) and monitored with a fluorescence detector (wavelength: 560 nm). Analysis of the samples was performed over a linear gradient of 10–60% acetonitrile containing 0.08% trifluoroacetic acid for 50 min at a flow rate of 1 ml/min[48].
# S. aureus ATCC 25923 = format: cell-based, Staphylococcus aureus; settings: ATCC 25923, 2 h
# Experimental: To test the retinue of antimicrobial activity of mKLK in human serum, MIC of the serum-treated peptide was determined against S. aureus ATCC 25923 using microdilution broth assay. […] The MIC was determined as the lowest concentration of peptide at which no visible growth is seen[49].
# S. aureus [7] = assay: Effect of 1/2× MIC on bacterial growth; format: cell-based, Staphylococcus aureus
# Excerpt: To ensure that the antibiofilm property of mKLK is independent of its ability to inhibit bacterial growth, the effect of 1/2× MIC on bacterial growth was examined.
Structure (SMILES),HC50 (Human red blood cells),"HC50 (Human red blood cells; red cells of human, 1 h)","hemolysis at 1 h, 1.56 µM (in vitro [3])","hemolysis at 1 h, 3.12 µM (in vitro [3])","hemolysis at 1 h, 6.25 µM (in vitro [3])","hemolysis at 1 h, 12.5 µM (in vitro [3])","hemolysis at 1 h, 25 µM (in vitro [3])","hemolysis at 1 h, 50 µM (in vitro [3])","hemolysis at 1 h, 75 µM (in vitro [3])","hemolysis at 1 h, 100 µM (in vitro [3])","hemolysis at 1 h, 150 µM (in vitro [3])","hemolysis at 1 h, 200 µM (in vitro [3])",also measured
CC(C)C[C@@H](NC(=O)[C@H](N)CCCCN)C(=O)N[C@H](CCCCN)C(=O)N[C@H](CC(C)C)C(=O)N[C@H](CC(C)C)C(=O)N[C@H](CC(C)C)C(=O)N[C@H](CC(C)C)C(=O)N[C@H](CC(C)C)C(=O)N[C@H](CCCCN)C(=O)N[C@H](CC(C)C)C(=O)N[C@H](CCCCN)C(N)=O [KLK] (H-[dK][dL][dK][dL][dL][dL][dL][dL][dK][dL][dK]-NH2; N-terminus assumed),38.49 µg/mL,29.1 µM,10.4%,18.3%,27.1%,34.2%,42.8%,71.5%,80.1%,88.3%,92.2%,95.4%,IC50 at 20 min (in vitro [1]): 28.8 µM; MIC [2]: > 256 µM; MIC (S. aureus [4]): 4 µg/mL
CC(C)C[C@@H](NC(=O)[C@H](N)Cc1c[nH]c2ccccc12)C(=O)N[C@H](Cc1c[nH]c2ccccc12)C(=O)N[C@H](C)C(=O)N[C@H](CC(C)C)C(=O)N[C@H](CC(C)C)C(=O)N[C@H](CCCCN)C(=O)N[C@H](CC(C)C)C(=O)N[C@H](CC(C)C)C(=O)N[C@H](CCCCN)C(=O)N[C@H](CC(C)C)C(=O)N[C@H](CCCCN)C(N)=O [mKLK] (H-[dW][dL][dW][dA][dL][dL][dK][dL][dL][dK][dL][dK]-NH2; N-terminus assumed),118.6 µg/mL,77.8 µM,0%,0.3%,1.8%,9.3%,15.4%,36.2%,48.2%,58.2%,62.4%,67.1%,reduction of biofilm formation on catheters (crystal-violet assay) ([5]; 1/2× MIC): 62%; reduction of biofilm formation on catheters (crystal-violet assay) ([5]; 1/4×MIC): 36%; reduction of biofilm formation on catheters (crystal-violet assay) ([5]; 1 × MIC): 72%; reduction of biofilm on catheters (crystal-violet assay) ([5]; 1/2× MIC): 58%; reduction of biofilm on catheters (crystal-violet assay) ([5]; 1/4× MIC): 27%; reduction of biofilm on catheters (crystal-violet assay) ([5]; 1× MIC): 73%; percentage of the peptide remaining [6]: 79%; MIC after serum treatment (S. aureus ATCC 25923): 4 µg/mL; effect on bacterial growth (S. aureus [7]): did not affect the bacterial growth
